Laboratory results as given in ChEMBL document CHEMBL5053543, “Macrocyclic BACE1 inhibitors with hydrophobic cross-linked structures: Optimization of ring size and ring structure” (Bioorg Med Chem, 2021).

These compounds were tested against T1, Beta-secretase 1 (Homo sapiens, UniProt P56817) (assay: Inhibition of recombinant BACE1 (unknown origin) using H-Ile-Lys-Thr-Glu-Glu-Ile-Ser-Glu-Val-Asn-Leu-Asp-Ala-Glu-Phe-Arg-His-Asp-Ser-Gly-NH2 peptide as substrate measured after 90 mins by analytical HPLC analysis).
T1 sequence (P56817 whole entry): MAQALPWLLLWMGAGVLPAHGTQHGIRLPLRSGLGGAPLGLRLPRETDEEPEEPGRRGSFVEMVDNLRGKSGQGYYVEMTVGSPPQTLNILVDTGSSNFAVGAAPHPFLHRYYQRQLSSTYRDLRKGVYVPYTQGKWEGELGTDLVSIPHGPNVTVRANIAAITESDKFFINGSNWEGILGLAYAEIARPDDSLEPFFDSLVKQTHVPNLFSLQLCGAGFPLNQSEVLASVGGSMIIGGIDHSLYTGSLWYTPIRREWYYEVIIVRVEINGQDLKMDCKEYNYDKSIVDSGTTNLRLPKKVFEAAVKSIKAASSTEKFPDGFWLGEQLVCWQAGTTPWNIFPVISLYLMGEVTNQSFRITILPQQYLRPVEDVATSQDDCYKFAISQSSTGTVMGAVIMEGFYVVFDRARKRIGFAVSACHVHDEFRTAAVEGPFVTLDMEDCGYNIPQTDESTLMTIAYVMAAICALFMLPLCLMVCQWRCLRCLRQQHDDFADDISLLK
With `CCC[C@@H]1NC(=O)[C@@H](NC(=O)[C@@H](N)CCC(=O)O)C/C=C/CC[C@@H]([C@H](O)CNc2ccc(C)cc2)NC1=O` the IC50 was over 1500 µM. Compound `CCC[C@@H]1NC(=O)[C@@H](NC(=O)[C@@H](N)CCC(=O)O)[C@H](C)OC/C=C\C[C@@H]([C@H](O)CNc2ccc(C)cc2)NC1=O` has an IC50 of 11.7 µM. Compound `CCC[C@@H]1NC(=O)[C@@H](NC(=O)[C@@H](N)CCC(=O)O)COC/C=C\CC[C@@H]([C@H](O)CNc2ccc(C)cc2)NC1=O` has an IC50 of over 1500 µM. For `CCC[C@@H]1NC(=O)[C@@H](NC(=O)[C@@H](N)CCC(=O)O)CC/C=C\CC[C@@H]([C@H](O)CNc2ccc(C)cc2)NC1=O`, the IC50 was 1410 µM. Compound `CCC[C@H](NC(=O)[C@@H](NC(=O)[C@@H](N)CCC(=O)O)[C@@H](C)CC)C(=O)N[C@@H](CC(C)C)[C@H](O)CNc1ccc(C)cc1` has an IC50 of 6.1 µM. `CCC[C@@H]1NC(=O)[C@@H](NC(=O)[C@@H](N)CCC(=O)O)COCCCCC[C@@H]([C@H](O)CNc2ccc(C)cc2)NC1=O` showed an IC50 of over 1500 µM. `CCC[C@@H]1NC(=O)[C@@H](NC(=O)[C@@H](N)CCC(=O)O)C/C=C\CC[C@@H]([C@H](O)CNc2ccc(C)cc2)NC1=O` was tested, and the IC50 was 1050 µM. `CCC[C@@H]1NC(=O)[C@@H](NC(=O)[C@@H](N)CCC(=O)O)CC/C=C/CC[C@@H]([C@H](O)CNc2ccc(C)cc2)NC1=O` gave an IC50 of 380 µM. `CCC[C@@H]1NC(=O)[C@@H](NC(=O)[C@@H](N)CCC(=O)O)C(C)(C)OC/C=C\C[C@@H]([C@H](O)CNc2ccc(CC(=O)O)cc2)NC1=O` gave an IC50 of 1.2 µM. In the case of `CCC[C@@H]1NC(=O)[C@@H](NC(=O)[C@@H](N)CCC(=O)O)[C@@H](C)OC/C=C/C[C@@H]([C@H](O)CNc2ccc(C)cc2)NC1=O`, the IC50 is reported as 1420 µM. `CCC[C@@H]1NC(=O)[C@@H](NC(=O)[C@@H](N)CCC(=O)O)[C@@H](C)OC/C=C\C[C@@H]([C@H](O)CNc2ccc(C)cc2)NC1=O` was tested, and the IC50 was 117 µM. `CCC[C@@H]1NC(=O)[C@@H](NC(=O)[C@@H](N)CCC(=O)O)[C@H](C)OCCCC[C@@H]([C@H](O)CNc2ccc(C)cc2)NC1=O` was tested, and the IC50 was 135 µM. `CCC[C@@H]1NC(=O)[C@@H](NC(=O)[C@@H](N)CCC(=O)O)C(C)(C)OCCCC[C@@H]([C@H](O)CNc2ccc(C)cc2)NC1=O` showed an IC50 of 6.1 µM. `CCC[C@@H]1NC(=O)[C@@H](NC(=O)[C@@H](N)CCC(=O)O)C(C)(C)OCCCC[C@@H]([C@H](O)CNc2ccc(CC(=O)O)cc2)NC1=O` showed an IC50 of 1.6 µM. Compound `CCC[C@@H]1NC(=O)[C@@H](NC(=O)[C@@H](N)CCC(=O)O)COC/C=C/CC[C@@H]([C@H](O)CNc2ccc(C)cc2)NC1=O` has an IC50 of over 1500 µM. In the case of `CCC[C@@H]1NC(=O)[C@@H](NC(=O)[C@@H](N)CCC(=O)O)CCCCCC[C@@H]([C@H](O)CNc2ccc(C)cc2)NC1=O`, the IC50 is reported as 780 µM. Work on `CCC[C@@H]1NC(=O)[C@@H](NC(=O)[C@@H](N)CCC(=O)O)[C@@H](C)OCCCC[C@@H]([C@H](O)CNc2ccc(C)cc2)NC1=O` yielded an IC50 of 1000 µM. With `CCC[C@@H]1NC(=O)[C@@H](NC(=O)[C@@H](N)CCC(=O)O)[C@H](C)OC/C=C/C[C@@H]([C@H](O)CNc2ccc(C)cc2)NC1=O` the IC50 was 1000 µM. For `CCC[C@@H]1NC(=O)[C@@H](NC(=O)[C@@H](N)CCC(=O)O)CCCCC[C@@H]([C@H](O)CNc2ccc(C)cc2)NC1=O`, the IC50 was 1400 µM. Work on `CCC[C@@H]1NC(=O)[C@@H](NC(=O)[C@@H](N)CCC(=O)O)C(C)(C)OC/C=C\C[C@@H]([C@H](O)CNc2ccc(C)cc2)NC1=O` yielded an IC50 of 3.9 µM.

Each compound was assayed against T1, Beta-secretase 1 (assay: Inhibition of recombinant BACE1 (unknown origin) at 1500 uM using H-Ile-Lys-Thr-Glu-Glu-Ile-Ser-Glu-Val-Asn-Leu-Asp-Ala-Glu-Phe-Arg-His-Asp-Ser-Gly-NH2 peptide as substrate measured after 90 mins by analytical HPLC analysis relative to control).
`CCC[C@@H]1NC(=O)[C@@H](NC(=O)[C@@H](N)CCC(=O)O)C/C=C/CC[C@@H]([C@H](O)CNc2ccc(C)cc2)NC1=O` was tested, and the inhibition was 20%. For `CCC[C@@H]1NC(=O)[C@@H](NC(=O)[C@@H](N)CCC(=O)O)COC/C=C\CC[C@@H]([C@H](O)CNc2ccc(C)cc2)NC1=O`, the inhibition was 20%. With `CCC[C@@H]1NC(=O)[C@@H](NC(=O)[C@@H](N)CCC(=O)O)COCCCCC[C@@H]([C@H](O)CNc2ccc(C)cc2)NC1=O` the inhibition was 20%. For `CCC[C@@H]1NC(=O)[C@@H](NC(=O)[C@@H](N)CCC(=O)O)COC/C=C/CC[C@@H]([C@H](O)CNc2ccc(C)cc2)NC1=O`, the inhibition was 20%.
